Tested on: AP-1 induced transcriptional activity
Assay: Cellular Transrepressional Assay: AP-1 luciferase reporter in PMA-activated A549 cells
Assay type: cell-based
Conditions: Homo sapiens, A549, 7 h, maximum inhibition, Cellular Transrepression Assay; read-out: AP-1 Max % inh (Cellular Transrepression Assay)
Method: Cellular Transrepressional Assay
To measure the ability of test molecules to inhibit AP-1 induced transcriptional activity we utilized an A549 cell which was stably transfected with a plasmid containing 7× AP-1 DNA binding sites (pAP-1-Luc plasmid, Stratagene Co. La Jolla, Calif.) followed by the gene for luciferase. Cells were activated with 10 ng/ml of […] (PMA) plus or minus test molecules for 7 hours. After 7 hours a luciferase reagent was added to measure luciferase enzymatic activity in the cell. After a 10 minute incubation of luciferase reagent with cells, luminescence was measured in a TopCount luminescence counter. Repression of AP-1 activity was calculated as the percentage decrease in the signal induced by PMA alone. Test molecules were analyzed in the concentration range from 0.1 nM to 40 μM. EC50s were determined by using standard curve fitting methods such as Excel fit (Microsoft Co.).

| SMILES | Emax [%] |
| --- | --- |
| CC(C)(C(=O)Nc1nccs1)C(c1ccc(N2CCOCC2)cc1)c1cccc(F)c1 (single isomer, unassigned) [Example 253, 3-(3-fluorophenyl)-2,2-dimethyl-3-(4-(4-morpholinyl)phenyl)-N-1,3-thiazol-2-ylpropanamide] | 27.9 |
| CC(C)(C(=O)Nc1nncs1)C(c1ccc(N2CCOCC2)cc1)c1cccc(F)c1 (single isomer, unassigned) [Example 255, 3-(3-fluroophenyl)-2,2-dimethyl-3-(4-(4-morpholinyl)phenyl)-N-1,3,4-thiadiazol-2-ylpropanamide] | 43 |
| CC(C)(C(=O)Nc1nccs1)[C@H](c1ccccc1)c1ccc(N2CCOCC2)cc1 (stereo in doubt) [Example 258, 2,2-dimethyl-3-(4-(4-morpholinyl)phenyl)-3-phenyl-N-1,3-thiazol-2-ylpropanamide] | 42.7 |
| COc1ccc([C@@H](c2ccccc2)C(C)(C)C(=O)Nc2nc(Cc3ccc(-c4ccncc4)cc3)cs2)cc1 (stereo in doubt) [Example 290, 2,2-dimethyl-3-(4-(methyloxy)phenyl)-3-phenyl-N-(4-((4-(4-pyridinyl)phenyl)methyl)-1,3-thiazol-2-yl)propanamide] | 72.6 |
| COc1ccc([C@H](c2ccccc2)C(C)(C)C(=O)Nc2nc(Cc3ccc(-c4ccncc4)cc3)cs2)cc1 (stereo in doubt) [Example 291, 2,2-dimethyl-3-(4-(methyloxy)phenyl)-3-phenyl-N-(4-((4-(4-pyridinyl)phenyl)methyl)-1,3-thiazol-2-yl)propanamide] | 74.3 |
| COc1cccc2sc(NC(=O)C(C)(C)C(c3ccccc3)c3ccccc3)nc12 [Example 46, 2,2-dimethyl-N-(4-(methyloxy)-1,3-benzothiazol-2-yl)-3,3-diphenylpropanamide] | 22.9 |
| CCOC(=O)/C(=N/OC)c1csc(NC(=O)C(C)(C)C(c2ccccc2)c2ccccc2)n1 [Example 49, ethyl (2E)-(2-((2,2-dimethyl-3,3-diphenylpropanoyl)amino)-1,3-thiazol-4-yl)((methyloxy)imino)ethanoate] | 20.1 |
| COc1ccc(C(c2ccc(OC)cc2)C(C)(C)C(=O)Nc2nc(C(C)(C)C)cs2)cc1 [Example 74, N-(4-(1,1-dimethylethyl)-1,3-thiazol-2-yl)-2,2-dimethyl-3,3-bis(4-(methyloxy)phenyl)propanamide] | 28.1 |
| COc1ccccc1C(c1ccccc1)C(C)(C)C(=O)Nc1nc(C)cs1 (stereo not shown) [Example 81, 2,2-dimethyl-3-(2-(methyloxy)phenyl)-N-(4-methyl-1,3-thiazol-2-yl)-3-phenylpropanamide] | 23.1 |
| COc1ccccc1C(c1ccccc1)C(C)(C)C(=O)Nc1ncc(C)s1 (stereo not shown) [Example 82, 2,2-dimethyl-3-(2-(methyloxy)phenyl)-N-(5-methyl-1,3-thiazol-2-yl)-3-phenylpropanamide] | 25.9 |
| COc1ccccc1C(c1ccccc1)C(C)(C)C(=O)Nc1nc(-c2ccccc2)cs1 (stereo not shown) [Example 84, 2,2-dimethyl-3-(2-(methyloxy)phenyl)-3-phenyl-N-(4-phenyl-1,3-thiazol-2-yl)propanamide] | 30.8 |
| COc1cccc(C(c2ccccc2)C(C)(C)C(=O)Nc2nccs2)c1 (stereo not shown) [Example 91, 2,2-dimethyl-3-(3-(methyloxy)phenyl)-3-phenyl-N-1,3-thiazol-2-ylpropanamide] | 23.2 |
| COc1cccc(C(c2ccccc2)C(C)(C)C(=O)Nc2ncc(C)s2)c1 (stereo not shown) [Example 93, 2,2-dimethyl-3-(3-(methyloxy)phenyl)-N-(5-methyl-1,3-thiazol-2-yl)-3-phenylpropanamide] | 28.1 |
| COc1cccc(C(c2ccccc2)C(C)(C)C(=O)Nc2nc(C)c(C)s2)c1 (stereo not shown) [Example 94, N-(4,5-dimethyl-1,3-thiazol-2-yl)-2,2-dimethyl-3-(3-(methyloxy)phenyl)-3-phenylpropanamide] | 35.4 |
| COc1cccc(C(c2ccccc2)C(C)(C)C(=O)Nc2nc(-c3ccccc3)cs2)c1 (stereo not shown) [Example 95, 2,2-dimethyl-3-(3-(methyloxy)phenyl)-3-phenyl-N-(4-phenyl-1,3-thiaozl-2-yl)propanamide] | 36.2 |
| COc1cccc(C(c2ccccc2)C(C)(C)C(=O)Nc2nc(C(C)(C)C)cs2)c1 (stereo not shown) [Example 96, N-(4-(1,1-dimethylethyl)-1,3-thiazol-2-yl)-2,2-dimethyl-3-(3-(methyloxy)phenyl)-3-phenylpropanamide] | 37.1 |
| COc1cccc(C(c2ccccc2)C(C)(C)C(=O)Nc2nc(CCc3ccccc3)cs2)c1 (stereo not shown) [Example 97, 2,2-dimethyl-3-(3-(methyloxy)phenyl)-3-phenyl-N-(4-(2-phenylethyl)-,3-thiaozl-2-yl)propanamide] | 26.5 |
| CCOC(=O)c1sc(NC(=O)C(C)(C)C(c2ccccc2)c2cccc(OC)c2)nc1C (stereo not shown) [Example 100, ethyl 2-((2,2-dimethyl-3-(3-(methyloxy)phenyl)-3-phenylpropanoyl)amino)-4-methyl-1,3-thiazole-5-carboxylate] | 30 |

| SMILES | Emax [%] |
| --- | --- |
| COc1cccc(C(c2ccccc2)C(C)(C)C(=O)Nc2nc3ccccc3s2)c1 (stereo not shown) [Example 101, N-1,3-benzothiazol-2-yl-2,2-dimethyl-3-(3-(methyloxy)phenyl)-3-phenylpropanamide] | 26.9 |
| COc1ccc(C(c2ccccc2)C(C)(C)C(=O)Nc2nc(C)cs2)cc1 (stereo not shown) [Example 104, 2,2-dimethyl-3-(4-(methyloxy)phenyl)-N-(4-methyl-1,3-thiazol-2-yl)-3-phenylpropanamide] | 27.3 |
| COc1ccc(C(c2ccccc2)C(C)(C)C(=O)Nc2ncc(C)s2)cc1 (stereo not shown) [Example 105, 2,2-dimethyl-3-(4-(methyloxy)phenyl)-N-(5-methyl-1,3-thiazol-2-yl)-3-phenylpropanamide] | 22.1 |
| COc1ccc(C(c2ccccc2)C(C)(C)C(=O)Nc2nc(C)c(C)s2)cc1 (stereo not shown) [Example 106, N-(4,5-dimethyl-1,3-thiazol-2-yl)-2,2-dimethyl-3-(4-(methyloxy)phenyl)-3-phenylpropanamide] | 35.9 |
| COc1ccc(C(c2ccccc2)C(C)(C)C(=O)Nc2nc(-c3ccccc3)cs2)cc1 (stereo not shown) [Example 107, 2,2-dimethyl-3-(4-(methyloxy)phenyl)-3-phenyl-N-(4-phenyl-1,3-thiaozl-2-yl)propanamide] | 38.4 |
| COc1ccc(C(c2ccccc2)C(C)(C)C(=O)Nc2nc(CCc3ccccc3)cs2)cc1 (stereo not shown) [Example 109, 2,2-dimethyl-3-(4-(methyloxy)phenyl)-3-phenyl-N-(4-(2-phenylethyl)-1,3-thiazol-2-yl)propanamide] | 22.6 |
| CCOC(=O)c1sc(NC(=O)C(C)(C)C(c2ccccc2)c2ccc(OC)cc2)nc1C (stereo not shown) [Example 112, ethyl 2-((2,2-dimethyl-3-(4-(methyloxy)phenyl)-3-phenylpropanoyl)amino)-4-methyl-1,3-thiazole-5-carboxylate] | 20.9 |
| O=C(Nc1nccs1)C1(C(c2ccccc2)c2ccccc2)CCCC1 [Example 162, 1-(diphenylmethyl)-N-1,3-thiazol-2-ylcyclopentanecarboxamide] | 22.8 |
| Cc1ccc(-c2csc(NC(=O)C(C)(C)C(c3ccccc3)c3ccccc3)n2)c2ccccc12 [Example 164, 2,2-dimethyl-N-(4-(4-methyl-1-naphthalenyl)-1,3-thiazol-2-yl)-3,3-diphenylpropanamide] | 75.2 |
| COc1ccc2c(-c3csc(NC(=O)C(C)(C)C(c4ccccc4)c4ccccc4)n3)cccc2c1 [Example 166, 2,2-dimethyl-N-(4-(6-(methyloxy)-1-naphthalenyl)-1,3-thiazol-2-yl)-3,3-diphenylpropanamide] | 62.3 |
| CC(C)(C(=O)Nc1nc(-c2ccc(F)cc2)cs1)C(c1ccccc1)c1ccccc1 [Example 168, N-(4-(4-fluorophenyl)-1,3-thiazol-2-yl)-2,2-dimethyl-3,3-diphenylpropanamide] | 23 |
| Cc1cccc(-c2csc(NC(=O)C(C)(C)C(c3ccccc3)c3ccccc3)n2)c1 [Example 170, 2,2-dimethyl-N-(4-(3-methylphenyl)-1,3-thiazol-2-yl)-3,3-diphenylpropanamide] | 27 |
| CC(C)(c1ccccc1)c1csc(NC(=O)C(C)(C)C(c2ccccc2)c2ccccc2)n1 [Example 181, 2,2-dimethyl-N-(4-(1-methyl-1-phenylethyl)-1,3-thiazol-2-yl)-3,3-diphenylpropanamide] | 28.9 |
| CC(C)(C(=O)Nc1nc(-c2ccc(F)c3ccccc23)cs1)C(c1ccccc1)c1ccccc1 [Example 183, N-(4-(4-fluoro-1-naphthalenyl)-1,3-thiazol-2-yl)-2,2-dimethyl-3,3-diphenylpropanamide] | 65.3 |
| CC(C)(C(=O)Nc1nc(-c2ccnc3ccccc23)cs1)C(c1ccccc1)c1ccccc1 [Example 184, 2,2-dimethyl-3,3-diphenyl-N-(4-(4-quinolinyl)-1,3-thiazol-2-yl)propanamide] | 57.5 |
| CC(C)(C(=O)Nc1nccs1)C(c1ccc(O)cc1)c1ccc(O)cc1 [Example 186, 3,3-bis(4-hydroxyphenyl)-2,2-dimethyl-N-1,3-thiazol-2-ylpropanamide] | 20.5 |
| CCOC(=O)c1sc(NC(=O)C(C)(C)C(c2ccc(O)cc2)c2ccc(O)cc2)nc1C [Example 194, ethyl 2-((3,3-bis(4-hydroxyphenyl)-2,2-dimethylpropanoyl)amino)-4-methyl-1,3-thiazole-5-carboxylate] | 25.4 |
| CC(C)(C(=O)Nc1nccs1)C(c1ccccc1)c1cccc(O)c1 (stereo not shown) [Example 197, 3-(3-hydroxyphenyl)-2,2-dimethyl-3-phenyl-N-1,3-thiazol-2-ylpropanamide] | 36.3 |

Same assay, conditions: Homo sapiens, A549, Cellular Transrepression Assay

| EC50 [nM] | SMILES |
| --- | --- |
| 37 | CC(C)(C(=O)Nc1nccs1)C(c1ccc(N2CCOCC2)cc1)c1cccc(F)c1 (single isomer, unassigned) [Example 253, 3-(3-fluorophenyl)-2,2-dimethyl-3-(4-(4-morpholinyl)phenyl)-N-1,3-thiazol-2-ylpropanamide] |
| 10.2 | CC(C)(C(=O)Nc1nncs1)C(c1ccc(N2CCOCC2)cc1)c1cccc(F)c1 (single isomer, unassigned) [Example 255, 3-(3-fluroophenyl)-2,2-dimethyl-3-(4-(4-morpholinyl)phenyl)-N-1,3,4-thiadiazol-2-ylpropanamide] |
| 10.5 | CC(C)(C(=O)Nc1nccs1)[C@H](c1ccccc1)c1ccc(N2CCOCC2)cc1 (stereo in doubt) [Example 258, 2,2-dimethyl-3-(4-(4-morpholinyl)phenyl)-3-phenyl-N-1,3-thiazol-2-ylpropanamide] |
| 9.65 | COc1ccc([C@@H](c2ccccc2)C(C)(C)C(=O)Nc2nc(Cc3ccc(-c4ccncc4)cc3)cs2)cc1 (stereo in doubt) [Example 290, 2,2-dimethyl-3-(4-(methyloxy)phenyl)-3-phenyl-N-(4-((4-(4-pyridinyl)phenyl)methyl)-1,3-thiazol-2-yl)propanamide] |
| 10.3 | COc1ccc([C@H](c2ccccc2)C(C)(C)C(=O)Nc2nc(Cc3ccc(-c4ccncc4)cc3)cs2)cc1 (stereo in doubt) [Example 291, 2,2-dimethyl-3-(4-(methyloxy)phenyl)-3-phenyl-N-(4-((4-(4-pyridinyl)phenyl)methyl)-1,3-thiazol-2-yl)propanamide] |
| 810 | Cc1ccc(-c2csc(NC(=O)C(C)(C)C(c3ccccc3)c3ccccc3)n2)c2ccccc12 [Example 164, 2,2-dimethyl-N-(4-(4-methyl-1-naphthalenyl)-1,3-thiazol-2-yl)-3,3-diphenylpropanamide] |
| 950 | COc1ccc2c(-c3csc(NC(=O)C(C)(C)C(c4ccccc4)c4ccccc4)n3)cccc2c1 [Example 166, 2,2-dimethyl-N-(4-(6-(methyloxy)-1-naphthalenyl)-1,3-thiazol-2-yl)-3,3-diphenylpropanamide] |

— US7968577B2 (Bristol-Myers Squibb Company, priority 2006, dated 2011)
